According to patent US20050085447A1, “Pyrido[3,4-d]pyrimidine derivatives as matrix metalloproteinase-13 inhibitors” (Warner-Lambert Company LLC, priority 2003, published 2005):
Read-outs that look alike come from different tables or passages of the source.

Assays:
[1] = Pharmacokinetics in Sprague-Dawley rats (single IV or oral dose); format: in vivo, rat; settings: rat, blood, Sprague-Dawley rats, single 5 mg/kg intravenous dose
Description: For comparison purposes, a reference compound was separately characterized according to its pharmacokinetics properties except AUC in a similar manner. The reference compound (“Reference Compound 1”) was the compound of Example 188 of PCT International Patent Application Publication number WO 02/064572 A1, which is also described in PCT International Patent Application Publication number WO 02/064080 A2 in Table IVb on page 76, 5th species from the top. […] Reference Compound 1 is named 4-[6-(4-methoxy-benzylcarbamoyl)- 1 -methyl-2,4-dioxo- 1,4-dihydro-2H-pyrido[3,4-d]pyrimidin-3-ylmethyl]-benzoic acid, and has the structure drawn below: [drawing 98]

[2] = molecular target: T1, MMP-14 catalytic domain (Homo sapiens, UniProt P50281); assay: Thiopeptolide substrate hydrolysis inhibition assay, MMP-14 catalytic domain; format: biochemical; settings: read-out: MMP-14CD IC50
T1 construct: MMP-14 catalytic domain, and MMP-17 catalytic domain
Description: (§1) The assay methods of Biological Examples 1-4 measure the amount by which a test compound reduces the hydrolysis of a thiopeptolide substrate catalyzed by a matrix metalloproteinase enzyme or catalytic domain thereof. It has been shown previously by Ye Qi-Zhuang, Hupe D., and Johnson L. (Current Medicinal Chemistry, 1996;3:407-418) that inhibitor activity against a catalytic domain of an MMP is predictive of the inhibitor activity against the respective full-length MMP enzyme. The methods described below for the inhibition of MMP-13 may also be adapted and used to determine the ability of the compounds of Formula I to inhibit other matrix metalloproteases such as MMP-1, MMP-2, MMP-3, MMP-7, MMP-8, MMP-9, MMP-12, MMP-14, MMP-17, and the like.
(§2) Thiopeptolide substrates show virtually no decomposition or hydrolysis at or below neutral pH in the absence of a matrix metalloproteinase enzyme. A typical thiopeptolide substrate commonly utilized for assays is Ac-Pro-Leu-Gly-thioester-Leu-Leu-Gly-OEt. A 100 μL assay mixture will contain 50 mM of N-2-hydroxyethylpiperazine-N′-2-ethanesulfonic acid buffer (“HEPES,” pH 7.0), 10 mM CaCl2, 100 μM thiopeptolide substrate, and 1 mM 5,5′-dithio-bis-(2-nitro-benzoic acid) (DTNB). […] The change in absorbance at 405 nm is monitored on a Thermo Max microplate reader (molecular Devices, Menlo Park, Calif.) at room temperature (22° C.). The calculation of the amount of hydrolysis of the thiopeptolide substrate is based on E412=13600 M^−1 cm^−1 for the DTNB-derived product 3-carboxy-4-nitrothiophenoxide. Assays are carried out with and without matrix metalloproteinase inhibitor compounds, and the amount of hydrolysis is compared for a determination of inhibitory activity of the test compounds.
(§3) Test compounds were evaluated at various concentrations in order to determine their respective IC50 values, the micromolar concentration of compound required to cause a 50% inhibition of catalytic activity of the respective enzyme.
(§4) Some representative compounds of Formula I have been evaluated for their ability to inhibit MMP-13, MMP-1FL, MMP-3CD, MMP-7FL, MMP-8FL, MMP-9FL, MMP-12CD, MMP-14CD, and/or MMP-17CD, wherein FL means full-length enzyme and CD means a catalytic domain of the full-length enzyme. Test compounds can be evaluated at various concentrations in order to determine their respective IC50 values, the micromolar concentration of compound required to cause a 50% inhibition of the hydrolytic activity of the respective enzyme.
(§5) Certain compounds of Formula I have also been assayed with MMP-1 full-length, MMP-3 catalytic domain, MMP-7 full-length, MMP-8 full-length, MMP-9 full-length, MMP-12 catalytic domain, MMP-14 catalytic domain, and MMP-17 catalytic domain. […] In Biological Table 2, the compound example numbers for the Compound Examples are indicated in the column labelled “Ex. No.”

[3] = molecular target: T2, MMP-17 catalytic domain (Homo sapiens, UniProt Q9ULZ9); assay: Thiopeptolide substrate hydrolysis inhibition assay, MMP-17 catalytic domain; format: biochemical; settings: read-out: MMP-17 CD IC50
T2 construct: MMP-14 catalytic domain, and MMP-17 catalytic domain
T2 sequence (Q9ULZ9 126-295 limits assumed): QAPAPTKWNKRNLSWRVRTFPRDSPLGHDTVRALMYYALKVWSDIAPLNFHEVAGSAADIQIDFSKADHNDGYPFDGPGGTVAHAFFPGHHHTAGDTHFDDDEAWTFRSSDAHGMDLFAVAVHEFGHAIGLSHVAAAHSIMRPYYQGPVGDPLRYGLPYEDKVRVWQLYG
Description: as §1, §2, §3, §4, §5

[4] = molecular target: T3, MMP-12 catalytic domain (Homo sapiens, UniProt P39900); assay: Thiopeptolide substrate hydrolysis inhibition assay, MMP-12 catalytic domain; format: biochemical; settings: read-out: MMP-12CD IC50
T3 construct: MMP-9 full-length, MMP-12 catalytic domain, MMP-14 catalytic domain
Description: as §1, §2, §3, §4, §5

[5] = molecular target: T4, MMP-3 catalytic domain (Homo sapiens, UniProt P08254); assay: Thiopeptolide substrate hydrolysis inhibition assay, MMP-3 catalytic domain; format: biochemical; settings: MES buffer pH 6.0, read-out: MMP-3CD IC50
T4 construct: MMP-1 full-length, MMP-3 catalytic domain, MMP-7 full-length
Description: as §1, §2, §3
It should be appreciated that the assay buffer used with MMP-3CD was 50 mM N-morpholinoethane sulfonate (“MES”) at pH 6.0 rather than the HEPES buffer at pH 7.0 described above.
as §4, §5

[6] = molecular target: MMP-13 catalytic domain (Homo sapiens, UniProt P45452); assay: Thiopeptolide substrate hydrolysis inhibition assay, MMP-13 catalytic domain; format: biochemical
Description: The methods described below for the inhibition of MMP-13 may also be adapted and used to determine the ability of the compounds of Formula I to inhibit other matrix metalloproteases such as MMP-1, MMP-2, MMP-3, MMP-7, MMP-8, MMP-9, MMP-12, MMP-14, MMP-17, and the like.
Thiopeptolide substrates show virtually no decomposition or hydrolysis at or below neutral pH in the absence of a matrix metalloproteinase enzyme. A typical thiopeptolide substrate commonly utilized for assays is Ac-Pro-Leu-Gly-thioester-Leu-Leu-Gly-OEt. A 100 μL assay mixture will contain 50 mM of N-2-hydroxyethylpiperazine-N′-2-ethanesulfonic acid buffer (“HEPES,” pH 7.0), 10 mM CaCl2, 100 μM thiopeptolide substrate, and 1 mM 5,5′-dithio-bis-(2-nitro-benzoic acid) (DTNB). […] Assays are carried out with and without matrix metalloproteinase inhibitor compounds, and the amount of hydrolysis is compared for a determination of inhibitory activity of the test compounds.

T3 sequence (P39900 106-263 limits assumed): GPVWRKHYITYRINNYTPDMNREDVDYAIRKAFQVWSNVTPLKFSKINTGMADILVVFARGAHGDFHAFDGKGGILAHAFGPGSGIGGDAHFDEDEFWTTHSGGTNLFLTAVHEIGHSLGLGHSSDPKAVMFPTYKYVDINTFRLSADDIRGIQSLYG
T4 sequence (P08254 100-272 limits assumed): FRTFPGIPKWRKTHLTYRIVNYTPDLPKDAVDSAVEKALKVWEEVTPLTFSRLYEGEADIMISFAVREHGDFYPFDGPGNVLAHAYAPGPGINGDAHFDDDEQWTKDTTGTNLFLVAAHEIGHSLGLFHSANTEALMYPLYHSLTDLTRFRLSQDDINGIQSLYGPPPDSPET

clearance ([1]; read-out: IV CL)	half-life ([1]; read-out: IV T1/2 (converted))	IC50 ([6]; MMP-13 catalytic domain, read-out: MMP-13CD IC50)	SMILES	IC50 [2]	IC50 [3]	IC50 [4]	IC50 [5]	IC50 [6]
48.9 mL/min/kg	36 min		COc1ccc(CNC(=O)c2cc3c(=O)n(Cc4ccc(C(=O)O)cc4)c(=O)n(C)c3cn2)cc1 [Reference Compound 1, 4-[6-(4-methoxy-benzylcarbamoyl)-1-methyl-2,4-dioxo-1,4-dihydro-2H-pyrido[3,4-d]pyrimidin-3-ylmethyl]-benzoic acid, reference compound]					
			COc1cc(CNC(=O)c2cc3c(=O)n(Cc4ccc(C(=O)O)cc4)cnc3cn2)ccn1 [Compound Example 6, 4-{6-[(2-methoxy-pyridin-4-ylmethyl)-carbamoyl]-4-oxo-4H-pyrido [3,4-d]pyrimidin-3-ylmethyl}-benzoic acid]	> 100 µM	> 100 µM	> 100 µM	17 µM	
		0.005 µM	O=C(O)c1ccc(Cn2cnc3cnc(C(=O)NCc4ccncc4)cc3c2=O)cc1 [Compound Example 5, 4-{4-oxo-6-[(pyridin-4-ylmethyl)-carbamoyl]-4H-pyrido[3,4-d]pyrimidin-3-ylmethyl}-benzoic acid]	> 100 µM	> 100 µM	> 100 µM	81 µM	
			O=C(O)c1ccc(Cn2cnc3cnc(C(=O)NCc4ccc(F)cc4)cc3c2=O)cc1 [Compound Example 8, 4-[6-(4-fluoro-benzylcarbamoyl)-4-oxo-4H-pyrido[3,4-d]pyrimidin-3-ylmethyl]-benzoic acid]	> 100 µM	> 100 µM	> 30 µM	33 µM	0.0043 µM
			O=C(O)c1ccc(Cn2cnc3cnc(C(=O)NCc4ccccc4)cc3c2=O)cc1 [Compound Example 9]	> 100 µM	> 100 µM	> 30 µM	> 30 µM	0.02 µM
			CSc1ccc(CNC(=O)c2cc3c(=O)n(Cc4ccc(C(=O)O)cc4)cnc3cn2)cc1 [Compound Example 7, 4-[6-(4-methylsulfanyl-benzylcarbamoyl)-4-oxo-4H-pyrido[3,4-d]pyrimidin-3-ylmethyl]-benzoic acid]	> 30 µM	> 100 µM	14 µM	> 10 µM	0.011 µM
